Source: ChEMBL document CHEMBL5316306 (J Med Chem, 2023)

Key:
[1] = biological target: T1, Proteasome Macropain subunit MB1 (Homo sapiens, UniProt P28074); experiment: Inhibition of human 20s constitutive proteasome beta-5c
T1 sequence (P28074 whole entry): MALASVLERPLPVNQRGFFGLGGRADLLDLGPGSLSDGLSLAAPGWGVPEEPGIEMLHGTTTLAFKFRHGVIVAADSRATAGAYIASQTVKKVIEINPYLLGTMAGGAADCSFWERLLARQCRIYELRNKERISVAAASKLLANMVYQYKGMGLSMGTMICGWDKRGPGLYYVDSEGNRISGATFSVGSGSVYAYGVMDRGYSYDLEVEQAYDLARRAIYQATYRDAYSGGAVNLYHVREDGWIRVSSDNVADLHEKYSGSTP

[2] = biological target: T2, Proteasome subunit beta type-8 (Homo sapiens, UniProt P28062); experiment: Inhibition of human 20s immunoproteasome beta-5i subunit
T2 sequence (P28062 whole entry): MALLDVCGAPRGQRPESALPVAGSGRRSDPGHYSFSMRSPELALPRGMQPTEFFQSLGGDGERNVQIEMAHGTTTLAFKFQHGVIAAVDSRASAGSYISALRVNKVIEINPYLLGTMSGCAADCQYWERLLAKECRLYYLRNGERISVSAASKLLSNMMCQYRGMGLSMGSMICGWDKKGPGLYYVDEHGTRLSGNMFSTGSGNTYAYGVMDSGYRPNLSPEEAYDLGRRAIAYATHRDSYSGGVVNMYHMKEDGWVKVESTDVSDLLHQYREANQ

[3] = biological target: T3, Proteasome subunit beta type-9 (Homo sapiens, UniProt P28065); experiment: Inhibition of human 20s immunoproteasome beta-1i subunit
T3 sequence (P28065 whole entry): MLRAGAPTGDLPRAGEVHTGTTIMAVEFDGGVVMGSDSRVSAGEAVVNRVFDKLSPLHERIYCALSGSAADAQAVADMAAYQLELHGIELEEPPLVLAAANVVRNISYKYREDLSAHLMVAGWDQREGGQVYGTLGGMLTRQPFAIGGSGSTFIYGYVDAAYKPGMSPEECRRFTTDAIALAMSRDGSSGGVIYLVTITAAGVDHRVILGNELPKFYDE

[4] = biological target: T4, Proteasome subunit beta type-10 (Homo sapiens, UniProt P40306); experiment: Inhibition of human 20s immunoproteasome beta-2i subunit
T4 sequence (P40306 whole entry): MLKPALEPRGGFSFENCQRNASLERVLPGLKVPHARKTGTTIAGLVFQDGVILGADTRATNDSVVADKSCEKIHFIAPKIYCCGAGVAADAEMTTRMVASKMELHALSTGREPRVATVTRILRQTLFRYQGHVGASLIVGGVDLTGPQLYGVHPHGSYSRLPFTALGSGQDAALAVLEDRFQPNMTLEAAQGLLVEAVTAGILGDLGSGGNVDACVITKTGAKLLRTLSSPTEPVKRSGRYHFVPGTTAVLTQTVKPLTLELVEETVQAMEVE

HepG2 = experiment: Cytotoxicity against human HepG2 cells after 72 hrs by celltitre-glo assay; format: functional, cell-based; settings: HepG2, 72 h
MM1.S = experiment: Cytotoxicity against human MM1.S cells after 72 hrs by celltitre-glo assay; format: functional, cell-based
RPMI-8226 = experiment: Cytotoxicity against human RPMI-8226 cells after 72 hrs by celltitre-glo assay; format: functional, cell-based; settings: RPMI-8226, 72 h
[5] = biological target: T1, Proteasome Macropain subunit MB1; experiment: Inhibition of 20s constitutive proteasome beta-5c (unknown origin)
[6] = biological target: T2, Proteasome subunit beta type-8; experiment: Inhibition of 20s immunoproteasome beta-5i subunit (unknown origin)

| SMILES | IC50 [1] [µM] | IC50 [2] [µM] | further results |
| --- | --- | --- | --- |
| CC(C)(C)NC(=O)C[C@H](NC(=O)C(=O)c1ccccc1)C(=O)NCc1cccc(B(O)O)c1 | 0.24 | > 100 |  |
| CC(C)(C)NC(=O)CC[C@H](NC(=O)C(=O)c1c[nH]c2ccccc12)C(=O)NCc1cccc(B(O)O)c1 | 0.085 | 11.3 | IC50 [3]: > 33.3 µM; IC50 [4]: > 33.3 µM; EC50 (HepG2): 49.1 µM; EC50 (MM1.S): 0.76 µM; EC50 (RPMI-8226): 15 µM |
| COc1ccc(Cc2noc(CN(C(=O)COc3ccc(Br)cc3)C(C)C)n2)cc1OC |  |  | IC50 [5]: 0.037 µM |
| Cc1ccc(S(=O)(=O)N[C@@H](CC(=O)NC(C)(C)C)C(=O)Nc2ccc(B(O)O)cc2)cc1 | > 100 | > 100 |  |
| Cc1ccc(S(=O)(=O)N[C@@H](CC(=O)NC(C)(C)C)C(=O)NCc2ccc(B(O)O)o2)cc1 | 2.6 | 57.2 |  |
| Cc1ccc(S(=O)(=O)N[C@@H](CC(=O)NC(C)(C)C)C(=O)NCc2ccccc2)cc1 | > 100 | > 100 |  |
| CC(C)(C)NC(=O)C[C@H](NC(=O)c1cc(Cl)ccc1Cl)C(=O)NCc1cccc(B(O)O)c1 | 1.4 | 57.7 |  |
| Cc1ncc(C(=O)N[C@@H](CC(=O)NC(C)(C)C)C(=O)NCc2cccc(B(O)O)c2)s1 | > 100 | > 100 |  |
| CC(C)(C)NC(=O)C[C@H](NC(=O)c1cc(-c2ccccc2)ccn1)C(=O)NCc1cccc(B(O)O)c1 | 3.8 | 22.8 |  |
| COC[C@H](NC(=O)c1cc(C)on1)C(=O)N[C@@H](COC)C(=O)N[C@@H](CC(C)C)C(=O)[C@@]1(C)CO1 |  |  | IC50 [5]: 0.02 µM; IC50 [6]: 0.3 µM |
| CC(C)(C)NC(=O)C[C@H](NC(=O)C(=O)C1CC1)C(=O)NCc1cccc(B(O)O)c1 | 24.1 | > 100 |  |
| CCCc1ccc(OCC(=O)N(Cc2nc(-c3cccnc3)no2)C(C)C)cc1 | 0.005 | > 100 | IC50 [5]: 0.027 µM; IC50 [6]: 2.17 µM |
| Cc1ccc(S(=O)(=O)N[C@@H](CC(=O)NC(C)(C)C)C(=O)NCc2ccco2)cc1 | > 100 | > 100 |  |
| Cc1ccc(S(=O)(=O)N[C@@H](CC(=O)NC(C)(C)C)C(=O)NCc2cccs2)cc1 | > 100 | > 100 |  |
| Cc1ccc(S(=O)(=O)N[C@@H](CC(=O)NC(C)(C)C)C(=O)NCc2cccc(B(O)O)c2)cc1 | 0.21 | > 100 |  |
| CC(C)(C)NC(=O)C[C@H](NC(=O)CN1CCOCC1)C(=O)NCc1cccc(B(O)O)c1 | > 100 | > 100 |  |
| Cc1ccc(S(=O)(=O)N[C@@H](CC(=O)NC(C)(C)C)C(=O)NCc2cccc(C(=O)O)c2)cc1 | > 100 | > 100 |  |
